Source: patent publication US10017823B2, “Analytical method for increasing susceptibility of molecular targeted therapy in hepatocellular carcinoma” (CBS BIOSCIENCE, CO., LTD, priority 2013, dated 2018)

How the values were obtained:
hepatocellular carcinoma = experiment: Susceptibility assay in sorafenib-administered patients (tumor response according to RECIST); type: in vivo
Description: The term “patient having susceptibility to sorafenib treatment” refers to a hepatocellular carcinoma patient showing response according to the sorafenib administration (i.e., tumor response). […] N Engl J Med 359: 378-390.
In the samples derived from 23 sorafenib-administered patients, we analyzed the relationship between the 7 marker gene expression patterns and the sorafenib efficacies. From the hierarchical clustering analysis results of FIG. 5, clustering without primary classification according to BCLC stages was performed according to expression ratio (tumor/non-tumor) of the target molecules; and then the 23 sorafenib-administered patients (i to xxiii) were correspondingly arranged thereto (FIG. 6). […] N Engl J Med 359: 378-390.

advanced HCC = conditions: HCC patients, stated as very low; cited from earlier work

Which “tumor response according to RECIST” value (hepatocellular carcinoma; patients viii, x, xi of the 23 sorafenib-administered HCC patients) does the source give for `CNC(=O)c1cc(Oc2ccc(NC(=O)Nc3ccc(Cl)c(C(F)(F)F)c3)cc2)ccn1` [sorafenib] here?
Its value is “partial response”.

What about the “susceptibility to the sorafenib treatment (RECIST tumor response)” value (hepatocellular carcinoma; remaining 20 of the 23 sorafenib-administered HCC patients) of the same compound?
The value was “not susceptible”.

What about the “response rate of sorafenib” value (advanced HCC) of the same compound?
Its value is “about 3%”.
